# Assay results from paper PMC12841663, “Antiprotozoal Potential of Cultivated Geranium macrorrhizum Against Giardia duodenalis, Trichomonas gallinae and Leishmania infantum” (International Journal of Molecular Sciences, 2026).
# “Also recorded” adds a separate entry of the source.
# Key:
# [1] = Cytotoxicity of pure compounds on Vero cells (MTT); format: cell-based; conditions: African green monkey
# Procedure: African green monkey kidney cells (Vero cells) were maintained in Dulbecco’s modified Eagle’s minimal essential medium (DMEM) (Thermo Fisher Scientific, Waltham, MA, USA) supplemented with 10% FBS and 1% Pen-Strep at 37 °C under a humidified atmosphere of 5% CO2/95% air.
# Cells seeded in 96-well flat-bottom microplates with 100 μL medium per well (initial densities 10^4 cells per well) were exposed for 48 h to serial dilutions (100, 75, 50, 25, 10 and 1 µg/mL) of the tested compounds in DMSO (<1% final concentration). Cell viability was analyzed by the MTT colorimetric assay method, and the purple-colored formazan precipitate was dissolved with 100 μL of DMSO [23].
# Data was analyzed using STATGRAPHICS Centurion XIX (https://www.statgraphics.com) (Statgraphics Technologies, Inc., The Plains, VA, USA). The mammalian cells and trophozoites viability were tested with each compound in a dose–response experiment to calculate their relative potency (CC50 or IC50 value, respectively). IC50 (μg/mL) expresses the dose of EOs, extracts or pure compounds needed to produce 50% mortality of trophozoites, while CC50 (μg/mL) expresses the dose of compounds necessary to produce 50% mortality of Vero cells.
# [2] = system: G. duodenalis trophozoites; assay: Morphological evaluation by light microscopy (Diff-Quik), G. duodenalis; format: cell-based, Giardia duodenalis; conditions: germacrone 100 µg/mL, metronidazole 100 µg/mL; 0.5 and 48 h; control DMSO 1%
# Procedure: Each well contained 435 μL of culture medium and 15 μL of the test or control compounds at the above-mentioned concentrations. The chamber included: two wells for growth control (0.5 h, 48 h), two for germacrone (0.5 h, 48 h), and two for metronidazole (0.5 h, 48 h). Incubation was performed at 37 °C. At each time point, the medium was removed, wells were dried, fixed, and stained with Diff-Quik. Morphological changes were analyzed using light microscopy. Experiments were performed as independent biological replicates on different plates, and one Diff-Quik stained smear was obtained per condition and time point per biological replicate. For morphometric analysis, a total of 30 trophozoites per condition and time point were measured across the independent biological replicates and were selected by consecutive sampling during a predefined serpentine (zig-zag) scan across the preparation. Up to two eligible trophozoites per field (intact, well-focused and non-overlapping) were measured in sequential fields until n = 30 was reached, avoiding subjective selection of “representative” cells. Overlapping, partially visible, out-of-focus, edge-of-field, or debris-obscured trophozoites were excluded a priori. Trophozoites were photographed using a researcher's mobile phone mounted to the microscope ocular. Calibration was performed at the same magnification using a stage micrometre and applied in ImageJ v. 1.54d. One Diff-Quik stained smear was obtained per condition/time point per biological replicate Cell length, cell width, cell surface, nuclear length, nuclear width, axoneme (only Giardia), and length of axostyle (only T. gallinae) were measured with ImageJ software, and the data were recorded in an Excel database for statistical analysis. The Shapiro-Wilk test was used to assess the normality of the morphological variables. When data followed a normal distribution, Student's t-test was applied; otherwise, non-parametric tests, such as the Mann-Whitney U test, was used. Values of p < 0.05 were considered significant. For the morphological analysis, the mean, standard deviation, median, and interquartile range were calculated using SPSS version 20 (IBM Corp., Armonk, NY, USA).
# T. gallinae trophozoites [3] = assay: Morphological evaluation by light microscopy (Diff-Quik), T. gallinae; format: cell-based, Trichomonas gallinae; conditions: germacrone 100 µg/mL, metronidazole 10 µg/mL; 0.5 and 48 h; control DMSO 1%
# Text: At each time point, quadruplicates were assigned per condition: growth control, germacrone, and the corresponding positive control (metronidazole or amphotericin B). For microscopy, quadruplicate wells corresponding to the same condition/time point were pooled prior to centrifugation to obtain sufficient biomass and a representative pellet for smear preparation. Pooled samples per condition/time point were centrifuged, resuspended in FBS and spread onto microscope slides. Once dried, samples were fixed and stained with Diff-Quik (Medion Diagnostic AG, […], Switzerland) following the manufacturer's instructions. Additionally, three wells per condition (triplicates) were used for the MTT assay, with absorbance measured by spectrophotometry after 48 h. Morphological changes were analyzed using light microscopy. Experiments were performed as independent biological replicates on different plates, and one Diff-Quik stained smear was obtained per condition and time point per biological replicate. For morphometric analysis, a total of 30 trophozoites per condition and time point were measured across the independent biological replicates and were selected by consecutive sampling during a predefined serpentine (zig-zag) scan across the preparation. Up to two eligible trophozoites per field (intact, well-focused and non-overlapping) were measured in sequential fields until n = 30 was reached, avoiding subjective selection of “representative” cells. Overlapping, partially visible, out-of-focus, edge-of-field, or debris-obscured trophozoites were excluded a priori. Trophozoites were photographed using a researcher's mobile phone mounted to the microscope ocular. Calibration was performed at the same magnification using a stage micrometre and applied in ImageJ v. 1.54d. One Diff-Quik stained smear was obtained per condition/time point per biological replicate Cell length, cell width, cell surface, nuclear length, nuclear width, axoneme (only Giardia), and length of axostyle (only T. gallinae) were measured with ImageJ software, and the data were recorded in an Excel database for statistical analysis. The Shapiro-Wilk test was used to assess the normality of the morphological variables. When data followed a normal distribution, Student's t-test was applied; otherwise, non-parametric tests, such as the Mann-Whitney U test, was used. Values of p < 0.05 were considered significant. For the morphological analysis, the mean, standard deviation, median, and interquartile range were calculated using SPSS version 20 (IBM Corp., Armonk, NY, USA).
# [4] = system: G. duodenalis trophozoites; assay: Anti-Giardia activity assay (MTT viability); format: cell-based; conditions: pure compounds
# Procedure: Anti-Giardia (AG) activity assays were conducted on G. duodenalis trophozoites from the ATCC® 30957 strain (assemblage A), using flat-bottom microwell plates in quadruplicate. […] Incubation was carried out for 24 h at 37 °C. EOs and pure compounds were solved in DMSO (Sigma, Madrid, Spain) (<1% final concentration). […] Trophozoites/promastigotes viability was assessed using the modified MTT colorimetric assay, as described previously in the literature, with results further validated by microscopic examination. The plate was analyzed in a spectrophotometer at a wavelength of 570 nm. The percentage of antiparasitic activity was calculated as growth inhibition, using the following formula: % AT = 100 - [(Ap - Ab) ÷ (Ac - Ab)] × 100, where Ap is the absorbance of the tested product, Ab the absorbance of the blank and Ac the absorbance of the control wells (culture without treatment). […] Metronidazole (Acros Organics, Madrid, Spain) served as a reference compound for anti-Giardia activity and Anti-Trichomonas activity and amphotericin B for anti-Leishmania activity. Data was analyzed using STATGRAPHICS Centurion XIX ([…].com) (Statgraphics Technologies, Inc., The Plains, VA, USA). The mammalian cells and trophozoites viability were tested with each compound in a dose-response experiment to calculate their relative potency (CC50 or IC50 value, respectively).
# T. gallinae trophozoites [5] = system: T. gallinae trophozoites; set-up: method as in PMID 36157195; conditions: cited from earlier work
smiles,measurement,setting,value
"Cc1ncc([N+](=O)[O-])n1CCO [Met, metronidazole, reference compound]",CC50 at 48 h,[1],> 100 µg/mL
same,axoneme length vs control,[2],decreased at 0.5 h; also recorded: continued to decrease
same,cell length vs control,[2],significant reductions at 30 min
same,cell surface area vs control,[2],reduction in cell surface area relative to the control within 0.5 h
same,cell width vs control,[2],decrease in cell width at 0.5 h
same,nuclear length (left and right) vs control,[2],No effects
same,nuclear width vs control,[2],"reduction at 0.5 h, followed by an increase at 48 h"
same,axostyle length vs control,T. gallinae trophozoites [3],decreased at 0.5 h; also recorded: undetectable in most metronidazole-treated trophozoites by 48 h
same,cell length vs control,T. gallinae trophozoites [3],"initial increase at 0.5 h, followed by a reduction at 48 h"
same,cell surface area vs control,T. gallinae trophozoites [3],significant reduction only at 48 h
same,nuclear length vs control,T. gallinae trophozoites [3],decreased with metronidazole
same,nuclear width vs control,T. gallinae trophozoites [3],diminished at 0.5 h; also recorded: further decreased
same,IC50,[4],4.4 µg/mL
same,T. gallinae IC50,T. gallinae trophozoites [5],1.0 (0.8–1.1) [23] µg/mL
